{
  "source": "patent US20120264159A1",
  "about": "“SCREENING SYSTEM FOR MODULATORS OF HER2 MEDIATED TRANSCRIPTION AND HER2 MODULATORS IDENTIFED THEREBY” (BUCK INSTITUTE FOR AGE RESEARCH, priority 2001, published 2012)",
  "key": {"[1]": {"test_system": "NCI panel of 60 human cancer cell lines", "conditions": "NCI/DTP screen, 60 human cancer cell line panel; read-out: median cytotoxic concentration (LC50); cited from earlier work"}, "[2]": {"test_system": "ErbB2 transcript", "assay": "Northern blot of ErbB2 transcript levels in ErbB2 overexpressing breast cancer cells", "type": "cell-based, human", "method": "The conserved and singular DNase I hypersensitivity sites found in the proximal ErbB2 and ESX promoters (12,15) were assayed as before (12). Briefly, following culture treatment of cells, nuclei isolated by mild detergent lysis in a buffer containing 10 mM Hepes pH 7.9, 1.5 mM MgCl2, 10 mM KCl, 0.4% NP-40, 10% glycerol and 1 mM DTT. Partial DNase I digestions were carried out by varying DNase I treatment times (0-15 minutes at 37( ) at a fixed DNase I concentrations (0.5-1.0 units per 10^6 nuclei). After purifying and restricting the DNA, it was electrophoresed through 0.7% agarose gels and blotted onto nylon membranes, UV-crosslinked and hybridized with randomly ^32P-labelled ErbB2 and ESX promoter probes, as similarly performed for routine Southern blotting. For Northern blotting, total (treated vs. control) cell RNA (10 μg/sample lane) was isolated using TRIzol (Invitrogen) according to manufacturer's specifications, electrophoresed into 1% agarose-formaldehyde gels and transferred onto membranes that were then hybridized with ^32P-labelled ErbB2 and ESX cDNA probes. For transcriptional run-off assays cell nuclei were first isolated from treated and control cells as described for the DNase I studies. Elongatation of initiated nascent RNA chains was performed at 37 (C for 30 minutes using ˜5×10^6 nuclei per reaction in a buffer containing 10 mM Tris pH7.5, 2.5 mM MgCl2, 150 mM KCl, 1 mM DTT, 10% glycerol, 0.5 mM ATP, GTP and CTP, and 100 μCi of [α-^32P]UTP (800 Ci/mmol). Nuclear RNA was purified by the addition of 100 units of RNase-free DNase I (Roche) per reaction for 2 minutes followed by TRIzol processing. Radiolabelled RNA was hybridized (˜4×10^6 cpm) at 68 (C in ExpressHyb (Clontech) for 24 hours to nylon filter membranes previously slotted with 0.5 μg per slot of unlabelled ErbB2 cDNA fragments (from either the transmembrane or C-terminal domains), ESX cDNA fragments, and empty plasmid control, as we have previously described (16). Filters were washed at 64 (C in 0.2 SSC and 0.5% SDS. For Western blotting, whole-cell extracts from control vs. treated cells were boiled in sample loading buffer (1% SDS, 20% glycerol, 100 mM DTT, 50 mM Tris, pH 6.8), gel lanes loaded for constant total protein (15 μg), electrophoresed into 9% sodium dodecyl sulfacte polyacrylamide (SDS-PAGE) gels, transferred onto membranes (Immobilon-P, Millipore), and the protein-bound membranes hybridized with a primary antibody followed by a horseradish peroxidase-conjugated secondary antibody (Sigma), and specific protein bands visualized by chemiluminescent substrate (Pierce), as previously described (10)."}, "[3]": {"test_system": "ErbB2 transcript synthesis", "assay": "Nuclear run-off assay of ErbB2 transcript synthesis in SKBR3 cells", "type": "cell-based, human", "conditions": "5 hours, 0.4 μM TSA", "method": "(§1) The conserved and singular DNase I hypersensitivity sites found in the proximal ErbB2 and ESX promoters (12,15) were assayed as before (12). Briefly, following culture treatment of cells, nuclei isolated by mild detergent lysis in a buffer containing 10 mM Hepes pH 7.9, 1.5 mM MgCl2, 10 mM KCl, 0.4% NP-40, 10% glycerol and 1 mM DTT. […]\n(§2) Nuclear run-off experiments were performed on ErbB2 overexpressing breast cancer cells to confirm the conclusion drawn from TSA induced downregulation of luciferase expression in MCF/R06pGL-9 cells that HDAC inhibitors can suppress ErbB2 promoter activity and presumably also repress ErbB2 transcription. […] Slot blot hybridization stringency was adjusted so that no signal could be detected from those control slots containing the empty plasmid."}, "[4]": {"test_system": "ErbB2 protein", "assay": "Western blot of 185 kDa ErbB2 protein levels in breast cancer cell lines", "type": "cell-based, human", "method": "(§3) The conserved and singular DNase I hypersensitivity sites found in the proximal ErbB2 and ESX promoters (12,15) were assayed as before (12). Briefly, following culture treatment of cells, nuclei isolated by mild detergent lysis in a buffer containing 10 mM Hepes pH 7.9, 1.5 mM MgCl2, 10 mM KCl, 0.4% NP-40, 10% glycerol and 1 mM DTT. Partial DNase I digestions were carried out by varying DNase I treatment times (0-15 minutes at 37( ) at a fixed DNase I concentrations (0.5-1.0 units per 10^6 nuclei). After purifying and restricting the DNA, it was electrophoresed through 0.7% agarose gels and blotted onto nylon membranes, UV-crosslinked and hybridized with randomly ^32P-labelled ErbB2 and ESX promoter probes, as similarly performed for routine Southern blotting. For Northern blotting, total (treated vs. control) cell RNA (10 μg/sample lane) was isolated using TRIzol (Invitrogen) according to manufacturer's specifications, electrophoresed into 1% agarose-formaldehyde gels and transferred onto membranes that were then hybridized with ^32P-labelled ErbB2 and ESX cDNA probes. For transcriptional run-off assays cell nuclei were first isolated from treated and control cells as described for the DNase I studies. […]"}, "[5]": {"test_system": "RO6 HER2 promoter", "assay": "Basal promoter activity of MCF-7b stable RO6 populations", "type": "cell-based, human", "conditions": "10 nM, 24 hours, serum-free media, clone and polyclonal populations", "method": "Parental cell lines MCF-7, and MDA-453 were transfected with the construct Ro6pGL (FIG. 2) in conjunction with pcMneo construct using lipid-based transfection (Effectene) at a ratio of 20:1 reporter:selectable marker (see, FIG. 4). Monoclonal and polyclonal populations were selected in 0.5 mg/ml G418 over 2 to 4 weeks.\nReporter activity was assayed as follows: From T-150 or T-75 culture flasks, about […] cells/well were plated into a 96 well plate format for high-throughput screening. 24 hours post plating a test agent e.g. a drug from a combinatorial library, was added to the wells at various concentrations. Certain wells were used as controls (e.g. PBS or DMSO vehicle only). Replicate wells ([…] per drug concentration) were run. 24 hours after addition of the test agent the cells were lysed, a luciferase reagent was added and activity in each well was read using a high-throughput screening plate reader (labsystems Fluoroskan). Parallel plates were run for cell viability using an MTT assay (Sigma)."}, "[6]": {"test_system": "ESX mRNA synthesis", "assay": "Nuclear run-off assay of ESX mRNA synthesis in SKBR3 cells", "type": "cell-based, human", "conditions": "5 hours, 0.4 μM TSA", "method": "as §1, §2"}, "[7]": {"test_system": "ESX transcript", "assay": "Northern blot of ESX transcript levels in SKBR3 cells", "type": "cell-based, human", "conditions": "24 hours TSA treatment", "method": "as §3"}, "[8]": {"test_system": "ErbB2 and ESX promoter hypersensitive loci", "assay": "DNase I hypersensitivity analysis of ErbB2 and ESX promoters", "type": "cell-based, human", "conditions": "SKBR3 cells, 24 hour, 0.4 μM TSA", "method": "as §3"}},
  "data": [
    {"compound": "CC(/C=C/C(=O)NO)=C\\[C@@H](C)C(=O)c1ccc(N(C)C)cc1", "note": "[TSA, trichostatin A]", "values": [
      {"measurement": "CC50", "setting": "[1]", "result": "> 10", "unit": "µM"},
      {"measurement": "ErbB2 transcript levels relative to control", "setting": "[2]; 8 hour TSA treatment, Northern assays (data not shown)", "result": "< 20 % of control"},
      {"measurement": "ErbB2 transcript levels", "setting": "[2]; MDA-453 and BT-474 cells, similar TSA treatment (data not shown)", "result": "Virtually complete elimination of ErbB2 transcript levels"},
      {"measurement": "ErbB2 mRNA level / decay", "setting": "[2]; SKBR3 cells, 5 hours treatment, TSA 0.05 or 0.40 μM, Act D 10 μg/ml", "result": "greatly enhanced the rate of ErbB2 mRNA decay"},
      {"measurement": "ErbB2 transcript levels", "setting": "[2]; SKBR3 cells, 24 hours, 0.4 μM TSA", "result": "near total disappearance of ErbB2 transcripts"},
      {"measurement": "synthesis of new ErbB2 transcripts", "setting": "[3]", "result": "profoundly suppresses synthesis of new ErbB2 transcripts"},
      {"measurement": "ectopic 185 kDa ErbB2 protein level", "setting": "[4]; MCF/HER2-18 cells (CMV promoter), same TSA treatment conditions", "result": "further stimulated"},
      {"measurement": "endogenous 185 kDa ErbB2 protein levels (normalized to α-tubulin)", "setting": "[4]; SKBR3, MDA-453 and BT-474 cells, 24 hour, 0.4 μM TSA", "result": "marked decline"},
      {"measurement": "basal promoter activity", "setting": "[5]", "result": "decreased basal promoter activity"},
      {"measurement": "ESX mRNA synthesis", "setting": "[6]", "result": "preserves ESX mRNA synthesis"},
      {"measurement": "increase in ESX transcript levels", "setting": "[7]", "result": 5, "unit": "fold"},
      {"measurement": "DNase I hypersensitivity of ErbB2 and ESX promoter loci", "setting": "[8]", "result": "lack of any TSA treatment effects on the hypersensitive loci"}
    ]}
  ]
}
